Experimental data published in patent publication US9499509B2, “Dihydrochalcone derivatives and their use as antibiotic agents” (UNIVERSITÉ DU QUÉBEC À CHICOUTIMI, priority 2012, dated 2016).
Where two headings read alike, the source gives them in different places.

Key:
[1] = tested on: methicillin-resistant Staphylococcus aureus (MRSA) strains; assay: Antibiotic assay (resazurin, Example 1), MRSA strains; format: cell-based; conditions: for IC50: read-out: IC50
Description: (§1) Bacteria Strain. […] The MRSA were obtained as further described below.
(§2) Antibiotic agents. Cyprofloxacin and erythromycin were provided by Sigma-Aldrich. Gentamicin sulfate and vancomycin hydrochloride were provided by Calbiochem.
Isolation and identification of methicillin-resistant Staphylococcus aureus (MRSA) strains. From March 2007 to March 2008, 35 screening swabs from nares (n=31), throat (n=3), Groin pus (n=1) were obtained from patients hospitalized at Chicoutimi hospital. Identification of S. aureus was performed using the Slidex Staph-Kit (bioMerieux Vitek, Inc., Hazelwood, Mo.) according to the manufacturer's instructions. Quality control was performed with MRSA strain ATCC 43300 and S. aureus strain ATCC 25923. In addition, S. aureus profile was determined with API Staph test strip with bacterial suspension of saline McFarland of 0.5 (bioMerieux, Durham, N.C.) according to the manufacturer's protocol. API Staph strips were held for 24 h before the results were read. A latex agglutination (SLIDEX) test detecting methicilin resistance in Staphylococci based on the production of low-affinity PBP2a, which is encoded by the mecA gene was performed on all strains. An antibiogram was also performed to confirm the identification of MRSA strains using disk diffusion test.
Antibiotic susceptibility testing using disk diffusion method. The antimicrobial activity of different classes of antibiotics of the potential MRSA was determined by diffusion method (Kirby-Bauer) as described by NCCLS. The antibiotics tested included: penicillin (10 units), amoxicillin/clavulanic acid (20/10 μg), ciprofloxacin (5 μg), moxifloxacin (5 μg), levofloxacin (5 μg), clindamycin (15 μg), erythromycin (15 μg), cefoxitin (30 μg), linezolid (30 μg), trimethoprim/sulfomethoxazole (1.25/23.75 μg), rifampicin (5 μg), gentamicin (10 μg) and vancomycin (30 μg). The agar medium had pH 7.2 to 7.4 before inoculing potentiel MRSA. The antibiotics were maintained at 8° C. or lower −14° C. according to manufacturer's recommendations. The pure culture was inoculated on a non-selective plate for 18-24 h. Each colony was collected with a wire loop and transfered the growth to a tube containing 4 to 5 mL of a tryptic-soy broth. The inoculum density was standarized with BaSO4 using 0.5 McFarland standard. All strains were incubated at 37° C. until it achieves or exceeds the turbidity of 0.5 McFarland standard. Inoculation of the dried surface (Muller-Hinton agar plate) by streaking the swab over the entire sterile agar surface. This procedure was repeated two more times. After 15 min, the appropriate disk were applied on the surface with a sterile forceps. The inverted plates was placed in a incubator at 37° C./air/16 to 18 h or 24 h for vancomycin. The inhibition zones were measured with a millimetric ruler. Interpretation of zone sizes by references of the manufacturer. Quality control organisms used were ATCC strains number 25923.
(§3) MRSA. Ten (10) strains of MRSA obtained as described above were tested along with an S. aureus wild type (WT) strain (ATCC25923).

[2] = tested on: S. aureus wild type strain (ATCC 25923); assay: Antibiotic assay (resazurin, Example 1), S. aureus wild type; format: cell-based, Staphylococcus aureus
Procedure: as §1, §2, §3

Streptococcus pneumoniae = assay: Antibiotic assay (resazurin, Example 1), Streptococcus pneumoniae; format: cell-based; conditions: for IC50: read-out: IC50
Procedure: as §1, §2
(§4) Five additional strains were tested: Streptococcus pneumoniae, Streptococcus agalactiae, Streptococcus pyogenes, Enterococcus faecalis and Corynebacterium jeikeium.

Enterococcus faecalis = assay: Antibiotic assay (resazurin, Example 1), Enterococcus faecalis; format: cell-based; conditions: for IC50: read-out: IC50
Procedure: as §1, §2, §4

Corynebacterium jeikeium = assay: Antibiotic assay (resazurin, Example 1), Corynebacterium jeikeium; format: cell-based; conditions: Coryne. jeikeium 14139
Procedure: as §1, §2, §4

Streptococcus pyogenes = assay: Antibiotic assay (resazurin, Example 1), Streptococcus pyogenes; format: cell-based; conditions: for IC50: read-out: IC50
Procedure: as §1, §2, §4

Streptococcus agalactiae = assay: Antibiotic assay (resazurin, Example 1), Streptococcus agalactiae; format: cell-based; conditions: for IC50: read-out: IC50
Procedure: as §1, §2, §4

WS-1 cell lines = assay: Cytotoxicity assay on WS-1 (Example 1); conditions: Table 5; WS-1, 48 h
Procedure: Cytotoxicity assay. The cytotoxicity assay was performed in 96-well plates (BD Falcon). The WS-1 cell lines were provided by ATCC. The WS-1 was cultured in DMEM+10% fetal calf serum. The cells were plated in a volume of 100 μL at a density of 5000 cells per well and incubated at 37° C.+5% CO2 for 24 h to promote cell adhesion.
The plates were incubated at 37° C.+5% CO2 for 48 h. The cells were then washed with 100 μL of HBSS and 150 μL of a 2% resazurin were added to the wells.
The therapeutic index is the ratio between the toxicity on normal cells, in this case fibroblast, and the toxicity on bacteria.

S. epidermidis = assay: Antibiotic assay (resazurin, Example 1), S. epidermidis strains

For `O=C(CCc1ccccc1)c1c(O)cc(O)c(C/C=C/c2ccc(O)cc2)c1O` [Compound III], the “Minimum Inhibitory Concentration (MIC)” value ([1]; MRSA 1) was “(5.5) μM”, the IC50 ([1]; MRSA 1) was 2.4 ± 0.2 µM and the “Minimum Inhibitory Concentration (MIC)” value ([1]; MRSA 2) was “(4.89) μM”. The IC50 ([1]; MRSA 2) was 2.3 ± 0.2 µM, the “Minimum Inhibitory Concentration (MIC)” value ([1]; MRSA 3) was “(5.11) μM” and the IC50 ([1]; MRSA 3) was 2.2 ± 0.2 µM. For the same compound, the “Minimum Inhibitory Concentration (MIC)” value ([1]; MRSA 4) was “(4.53) μM”, the IC50 ([1]; MRSA 4) was 2.2 ± 0.2 µM and the “Minimum Inhibitory Concentration (MIC)” value ([1]; MRSA 5) was “(4.27) μM”. For the same compound, the IC50 ([1]; MRSA 5) was 2.3 ± 0.2 µM, the “Minimum Inhibitory Concentration (MIC)” value ([1]; MRSA 6) was “(5.03) μM” and the IC50 ([1]; MRSA 6) was 2.2 ± 0.2 µM. The “Minimum Inhibitory Concentration (MIC)” value ([1]; MRSA 7) was “(4.93) μM”, the IC50 ([1]; MRSA 7) was 2.4 ± 0.2 µM and the “Minimum Inhibitory Concentration (MIC)” value ([1]; MRSA 8) was “(4.98) μM”. The IC50 ([1]; MRSA 8) was 2.2 ± 0.2 µM, the “Minimum Inhibitory Concentration (MIC)” value ([1]; MRSA 9) was “(5.77) μM” and the IC50 ([1]; MRSA 9) was 2.3 ± 0.2 µM. The “Minimum Inhibitory Concentration (MIC)” value ([1]; MRSA 10) was “(5.31) μM”, the IC50 ([1]; MRSA 10) was 2.8 ± 0.2 µM and the “Minimum Inhibitory Concentration (MIC)” value ([2]; S. aureus WT (ATCC 25923)) was “(5.81) μM”. The IC50 ([2]; S. aureus WT (ATCC 25923), read-out: IC50) was 2.2 ± 0.6 µM, the IC50 ([2]; Table 5, same values as IC50 of Table 2, read-out: S. aureus WT ATCC 25923 (toxicity on bacteria)) was 2.2 ± 0.6 µM and the “Minimum Inhibitory Concentration (MIC)” value (Streptococcus pneumoniae; Strep. pneumoniae 14070) was “(>200) μM”. The IC50 (Streptococcus pneumoniae; Strep. pneumoniae 14070) was 124 ± 5 µM, the “Minimum Inhibitory Concentration (MIC)” value (Streptococcus pneumoniae; Strep. pneumoniae 14112) was “(190) μM” and the IC50 (Streptococcus pneumoniae; Strep. pneumoniae 14112) was 89 ± 5 µM. For the same compound, the “Minimum Inhibitory Concentration (MIC)” value (Streptococcus pneumoniae; Strep. pneumoniae 14138) was “(>200) μM”, the IC50 (Streptococcus pneumoniae; Strep. pneumoniae 14138) was greater than 200 µM and the “Minimum Inhibitory Concentration (MIC)” value (Streptococcus pneumoniae; Strep. pneumoniae 14144) was “(>200) μM”. For the same compound, the IC50 (Streptococcus pneumoniae; Strep. pneumoniae 14144) was greater than 200 µM, the “Minimum Inhibitory Concentration (MIC)” value (Streptococcus pneumoniae; Strep. pneumoniae 14148) was “(200) μM” and the IC50 (Streptococcus pneumoniae; Strep. pneumoniae 14148) was 93 ± 7 µM. For the same compound, the “activity against Streptococcus pneumoniae 14070 strain” value (Streptococcus pneumoniae; in words) was “active”, the “activity against Streptococcus pneumoniae strain 14144” value (Streptococcus pneumoniae; in words) was “not active” and the “Minimum Inhibitory Concentration (MIC)” value (Enterococcus faecalis; Ent. Faecalis 14078) was “(>200) μM”. For the same compound, the IC50 (Enterococcus faecalis; Ent. Faecalis 14078) was greater than 200 µM, the “Minimum Inhibitory Concentration (MIC)” value (Enterococcus faecalis; Ent. Faecalis 14115) was “(>200) μM” and the IC50 (Enterococcus faecalis; Ent. Faecalis 14115) was greater than 200 µM. For the same compound, the “activity against Enterococcus faecalis” value (Enterococcus faecalis; in words) was “No activity”, the “Minimum Inhibitory Concentration (MIC)” value (Corynebacterium jeikeium) was “(200) μM” and the IC50 (Corynebacterium jeikeium; read-out: IC50) was 9 ± 2 µM. For the same compound, the “Minimum Inhibitory Concentration (MIC)” value (Streptococcus pyogenes; Strep. pyogenes 14149) was “(>200) μM”, the IC50 (Streptococcus pyogenes; Strep. pyogenes 14149) was greater than 200 µM and the “Minimum Inhibitory Concentration (MIC)” value (Streptococcus pyogenes; Strep. pyogenes 14152) was “(>200) μM”. For the same compound, the IC50 (Streptococcus pyogenes; Strep. pyogenes 14152) was 174 ± 10 µM, the “activity against Streptococcus pyogenes strain 14152” value (Streptococcus pyogenes; in words) was “active” and the “Minimum Inhibitory Concentration (MIC)” value (Streptococcus agalactiae; Strep. agalactiae 14150) was “(>200) μM”. The IC50 (Streptococcus agalactiae; Strep. agalactiae 14150) was 154 ± 2 µM, the “Minimum Inhibitory Concentration (MIC)” value (Streptococcus agalactiae; Strep. agalactiae 14151) was “(>200) μM” and the IC50 (Streptococcus agalactiae; Strep. agalactiae 14151) was greater than 200 µM. The “Minimum Inhibitory Concentration (MIC)” value (Streptococcus agalactiae; Strep. agalactiae 14153) was “(>200) μM”, the IC50 (Streptococcus agalactiae; Strep. agalactiae 14153) was greater than 200 µM and the “activity against Streptococcus agalactiae strain 14150” value (Streptococcus agalactiae; in words) was “active”. The “WS-1 (toxicity on normal cells, fibroblast)” value (WS-1 cell lines) was 20 ± 3, the IC50 (S. epidermidis; S. epidermidis 14069) was 4.5 ± 0.3 µM and the “Minimum Inhibitory Concentration (MIC)” value (S. epidermidis; S. epidermidis 14069) was “(10.9) μM”. The IC50 (S. epidermidis; S. epidermidis 14085) was 3.6 ± 0.4 µM, the “Minimum Inhibitory Concentration (MIC)” value (S. epidermidis; S. epidermidis 14085) was “(11.6) μM” and the IC50 (S. epidermidis; S. epidermidis 14093) was 6.3 ± 0.6 µM. For the same compound, the “Minimum Inhibitory Concentration (MIC)” value (S. epidermidis; S. epidermidis 14093) was “(8.43) μM”, the IC50 (S. epidermidis; S. epidermidis 14134) was 3 ± 0.6 µM and the “Minimum Inhibitory Concentration (MIC)” value (S. epidermidis; S. epidermidis 14134) was “(14.7) μM”. For the same compound, the IC50 (S. epidermidis; S. epidermidis 14143) was 4.41 ± 0.04 µM, the “Minimum Inhibitory Concentration (MIC)” value (S. epidermidis; S. epidermidis 14143) was “(9) μM” and the “activity on S. epidermidis compared with ciprofloxacin” value (S. epidermidis; in words) was “more active than ciprofloxacin”.
